Experiment [1] deals with T1, Octameric M2 MspA (Mycolicibacterium smegmatis, UniProt A0QR29, D117N/D118N/D120N/D145R/D161R/E166K).
T1 construct: made in house; host or cells: E. coli BL21 (DE3)
As to the kind of experiment: Alditol sensing using M2 MspA nanopore (control without PBA). The experiment is classed as binding, Mycobacterium smegmatis. Conditions: alditol 4 mM in cis, +100 mV. On the procedure:
FIG. 87: Alditol sensing using M2 MspA nanopore. Glycerol, erythritol, xylitol and sorbitol were used as the representative alditols with different number of hydroxyl groups. All measurements were carried out as described in Methods 1 in Example 3. Octameric M2 MspA was applied as the nanopore sensor. A transmembrane potential of +100 m V was continually applied. Each alditol was added to cis with a final concentration of 4 mM.
The octameric M2 MspA was used as a control in FIG. 87. It was expressed with E. coli BL21 (DE3) and purified by nickel affinity chromatography as reported previously.^1

Experiment [2] concerns the target T2, MspA-PBA (boronic acid appended hetero-octameric MspA) (Mycolicibacterium smegmatis, UniProt A0QR29, D117C/D118N/D120N/D145R/D161R/E166K).
T2 construct: H6 (hexa-histidine) (C); 3-(maleimide) phenylboronic acid (MPBA) adduct on the thiol of Cys90; made in house; host or cells: E. coli BL21 (DE3) pLysS, co-expression from pETDuet-1
Nature of the experiment: Single channel recording of alditol binding to MspA-PBA nanopore (standards and zero-sugar drinks). Further details: species or system Mycobacterium smegmatis. Conditions: N=3; for ratio (mean current percentage blockage) / std (standard deviation of the blocking level): alditol 4 mM (glycerol 8 mM) in cis. The method, then: FIG. 88: Definition of event parameters. (a) A representative electrophysiology trace containing nanopore events. Xylitol was treated as the model analyte. I0 is the open pore current and Ib is the residual current caused by alditol blockade. ratio is derived from (I0−Ib)/I0, which is defined as the percentage blockage. τoff represents the dwell time of an event. τon represents the inter-event interval. std is the standard deviation value of the blockage level. (b-c) The histogram plot of ratio (b) and std (c) acquired from a continually recorded trace. The histograms were Gaussian fitted and the peaks of the fitting results respectively represent the mean value of ratio and the mean std. (d-e) The histogram plots of τoff (d) and τon (e) acquired from a continually recorded trace. The histogram plots were respectively fit to a single exponential curve, according to the equation y=a*exp (−x/τ), from which the mean event dwell time (τoff) (d) and the mean inter-event interval (τon) (e) were respectively derived. If not otherwise stated, all results in this manuscript were described by event parameters defined above.
All subsequent nanopore measurements were carried out with a 1.5 M KCl buffer (1.5 M KCl, 10 mM 3-(N-Morpholino) propanesulfonic acid (MOPS), pH 7.0) and a +100 m V continually applied potential (Method 1 in Example 3). 13 types of alditols, which were derived from the reduction of the carbonyl group of C3-C6 monoaldoses were treated as model polyols (FIGS. 77b and 83). The PBA of MspA-PBA can complex with a polyol, forming a cyclic ester at the pore constriction and resulting in the corresponding nanopore event being reported. All alditols were added to the cis side of the pore and the final concentration of alditols was set at 4 mM with the exception of glycerol, which was set at 8 mM instead. […] In addition, single molecule sensing of glycerol and D-Sorbitol by MspA-PBA are as shown in FIGS. 104 and 105, respectively.
To describe the sensing events quantitatively, event parameters such as the open-pore current (I0), the current blockade (Ib), the percentage blockage (ratio), the event dwell time (τoff), the inter-event intervals (τon) and the standard deviation value of the blockage level (std) were defined as described in FIG. 88. The percentage blockage, also referred to for simplicity as ratio, is defined as (I0−Ib)/I0.
Quantitatively, the reciprocal of the mean inter-event interval (1/τon, N=3) is linearly correlated with the alditol concentration, consistent with a bimolecular model. The mean event dwell time τoff (N=3) however is independent of the alditol concentration, and this is consistent with a unimolecular dissociation mechanism (FIGS. 89e-92e, Table 18). […] The binding constant for borate cyclic ester formation for alditols increases as the number of hydroxyl groups in the alditol increases (FIG. 77c and Table 18), consistent with conclusions drawn previously from the corresponding NMR measurements.^52 Nanopore measurements were also performed with different applied voltages. […] This is expected because all alditols tested in this paper are electrically neutral and the formation of a borate ester is independent of the local electric field.
All nanopore measurements were performed as described previously.^1,2 Briefly, the measurement device has two custom chambers separated by a thick Teflon film containing a drilled (˜100 μm) aperture. Before the measurement, the aperture was first treated with 0.5% (v/v) hexadecane in pentane and set for pentane evaporation. Electrolyte buffer (500 μL) was added to the electrically grounded chamber (cis chamber) and the opposing chamber (trans chamber). All nanopore measurements in this paper were performed with a 1.5 M KCl buffer (1.5 M KCl, 10 mM MOPS, pH 7.0). Two custom-made Ag/AgCl electrodes were placed in both chambers in contact with the buffers and the patch-clamp amplifier to form a closed circuit. […]

Experiment [3] has as its target T3, MspA-PBA (phenylboronic acid modified hetero-octameric (N90C)1(M2)7 MspA) (Mycolicibacterium smegmatis, UniProt A0QR29, D117C/D118N/D120N/D145R/D161R/E166K).
T3 construct: H6 (hexa-histidine) (C); 3-(maleimide) phenylboronic acid (MPBA) adduct on the thiol of Cys90; made in house; host or cells: E. coli BL21 (DE3) pLysS, co-expression from pETDuet-1
The format is binding, Mycobacterium smegmatis. The settings on record: +200 mV. The method, then:
FIG. 46: Definition of event parameters. […] The measurement was carried out as described in Methods in Example 2. The chambers were filled with a 1.5 M KCl buffer (1.5 M KCl, 10 mM MOPS, pH 7.0). A transmembrane potential of +200 mV was continually applied. AMP was added to cis with a final concentration of 300 μM. The open pore current (Ip), the residual current (Ib), the dwell time (τoff) and the inter-event duration (τon) are defined as marked on the trace. The percentage blockage (% Ib) is defined as (Ip−Ib)/Ip. The noise amplitude (S.D.) is defined as the standard deviation of the blockage level.
NMPs consist of a ribose, a phosphate group and a nucleobase, serving as monomeric units of RNA. […] Experimentally, single channel recording was performed using MspA-PBA in a 1.5 M KCl buffer (1.5 M KCl, 10 mM MOPS, pH 7.0) (Methods in Example 2). A transmembrane potential of +200 mV was continually applied. Four canonical NMPs, adenine mononucleotide (AMP), guanine mononucleotide (GMP), cytosine mononucleotide (CMP) and uracil mononucleotide (UMP) were tested as analytes (FIG. 33d). Either type of NMP was added to cis at a final concentration of 300 μM. Subsequently, successive resistive pulses caused by either type of NMP were immediately observed (FIG. 33d). However, no events were observed when M2 MspA was tested, confirming that the PBA located at the pore constriction is critical in the generation of NMP sensing events (FIG. 44). At this condition, ˜1800 events/h were obtained from each pore. The pore could normally withstand a few hours of continuous measurement. Deoxyribonucleoside monophosphate (dNMP) fails to report any event when sensed by MspA-PBA (FIG. 45). This is expected because dNMPs have no cis-diol structure and can't form the boronate ester which is necessary for sensing. The molecular mechanism of sensing which results from reversible covalent bond formation between an NMP and the PBA at the pore constriction is thus confirmed.
To describe NMP sensing events quantitatively, the event dwell time (τoff), the inter-event interval (τon), the percentage blockage (% Ib=(Ip−Ib)/Ip) and the noise amplitude (S.D.) were derived as described in FIG. 46. Generally, the histograms of τoff and τon show an exponential distribution, and could be fitted to derive the mean time constants τoff or τon, respectively. The histograms of % Ib and S.D. show a Gaussian distribution, which could be fitted to derive the mean percentage blockage % Ib and S.D., respectively. During NMP sensing, by varying the NMP concentrations in cis, the reciprocal of dwell time (1/τoff) remains constant, consistent with a unimolecular dissociation mechanism. Whereas the reciprocal of the inter-event interval (1/τon) linearly correlates with the NMP concentration in cis (Tables 8-11, FIG. 47-50), consistent with a bimolecular model. The dependence of the applied voltage during NMP sensing was investigated using AMP as a representative analyte. […] This is expected because in a pH 7.0 buffer, the phosphate group of NMP is negatively charged and the electrophoretic force applied on the NMP analyte can strongly regulate the rate of event appearance and the event dwell time.

T2 sequence (A0QR29 other isoform, or with tags, fused parts or gaps D117N/D118N/D120N/D145R/D161R/E166K): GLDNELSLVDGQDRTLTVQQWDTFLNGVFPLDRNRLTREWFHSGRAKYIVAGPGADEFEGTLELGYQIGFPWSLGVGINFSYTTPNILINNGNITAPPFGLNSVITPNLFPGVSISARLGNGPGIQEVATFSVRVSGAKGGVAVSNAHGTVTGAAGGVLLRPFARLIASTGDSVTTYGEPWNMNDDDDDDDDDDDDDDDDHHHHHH
T2 sequence (A0QR29 other isoform, or with tags, fused parts or gaps D117C/D118N/D120N/D145R/D161R/E166K): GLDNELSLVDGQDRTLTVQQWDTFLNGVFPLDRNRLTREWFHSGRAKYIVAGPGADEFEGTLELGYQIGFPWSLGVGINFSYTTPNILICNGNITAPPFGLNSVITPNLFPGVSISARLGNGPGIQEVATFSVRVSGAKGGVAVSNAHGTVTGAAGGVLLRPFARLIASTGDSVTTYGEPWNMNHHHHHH
T1 sequence (A0QR29 28-211 D117N/D118N/D120N/D145R/D161R/E166K): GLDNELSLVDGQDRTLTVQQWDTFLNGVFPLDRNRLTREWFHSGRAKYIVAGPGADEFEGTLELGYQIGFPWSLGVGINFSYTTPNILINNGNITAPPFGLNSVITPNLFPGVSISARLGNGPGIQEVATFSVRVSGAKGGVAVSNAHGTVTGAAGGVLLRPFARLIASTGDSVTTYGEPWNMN

In the case of `OC[C@@H](O)[C@@H](O)[C@H](O)[C@@H](O)CO` [D-sorbitol], in experiment [1], the “binding events with M2 MspA” value is on record as “No binding events were observed”. Moreover, in experiment [2] (+100 mV), the “ratio (mean current percentage blockage)” value is recorded as 30.43 ± 0.06%. Further, in experiment [2] (+100 mV), the “std (standard deviation of the blocking level)” value came to 5.30 ± 0.17 pA. Also, the 1/τon in experiment [2] (alditol 2 mM in cis, +100 mV) came out at 0.40 ± 0.04 s⁻¹; in experiment [2] (alditol 4 mM in cis, +100 mV), 0.81 ± 0.09 s⁻¹; in experiment [2] (alditol 6 mM in cis, +100 mV) it was 1.2 ± 0.2 s⁻¹; in experiment [2] (alditol 8 mM in cis, +100 mV) it was 1.7 ± 0.1 s⁻¹; in experiment [2] (voltage series: +60 mV, glycerol 12 mM, other alditols 8 mM), 1.67 ± 0.03 s⁻¹; in experiment [2] (voltage series: +80 mV, glycerol 12 mM, other alditols 8 mM) it was 1.60 ± 0.06 s⁻¹. In addition, the 1/τon in experiment [2] (voltage series: +100 mV, glycerol 12 mM, other alditols 8 mM) worked out at 1.70 ± 0.06 s⁻¹; in experiment [2] (voltage series: +120 mV, glycerol 12 mM, other alditols 8 mM) it was 1.70 ± 0.05 s⁻¹. The τoff in experiment [2] (alditol 2 mM in cis, +100 mV) came to 2.1 ± 0.3 s; in experiment [2] (alditol 4 mM in cis, +100 mV) it was 2.11 ± 0.12 s; in experiment [2] (alditol 6 mM in cis, +100 mV), 2.2 ± 0.2 s; in experiment [2] (alditol 8 mM in cis, +100 mV), 2.2 ± 0.3 s.
Regarding `OC[C@@H](O)[C@H](O)[C@@H](O)[C@@H](O)CO` [L-sorbitol], in experiment [2] (+100 mV), the “ratio (mean current percentage blockage)” value is reported as 30.77 ± 0.06% and the “std (standard deviation of the blocking level)” value turned out to be 5.97 ± 0.04 pA.
With `OC[C@@H](O)[C@@H](O)[C@@H](O)CO` [adonitol], in experiment [2] (+100 mV), the “ratio (mean current percentage blockage)” value is 24.13 ± 0.15% and the “std (standard deviation of the blocking level)” value was 3.83 ± 0.07 pA.
The matching figures for `OC[C@@H](O)[C@@H](O)[C@@H](O)[C@@H](O)CO` [allitol]: 27.57 ± 0.06% and 4.64 ± 0.03 pA.
Regarding `OC[C@@H](O)C(O)[C@H](O)CO` [arabitol], in experiment [2] (+100 mV), the “ratio (mean current percentage blockage)” value came out at 25.13 ± 0.15% and the “std (standard deviation of the blocking level)” value is reported as 4.71 ± 0.03 pA.
`Nc1ncnc2c1ncn2[C@H]1C[C@H](O)[C@@H](COP(=O)(O)O)O1` [dAMP, 2′-deoxyadenosine-5′-phosphate]: the “sensing events with MspA-PBA” value in experiment [3] (analyte 1 mM in cis) is listed as “no dAMP sensing events were observed”.
For the molecule `OC[C@@H](O)[C@H](O)[C@H](O)[C@@H](O)CO` [dulcitol], in experiment [2] (+100 mV), the “ratio (mean current percentage blockage)” value amounted to 28.9 ± 0.3% and the “std (standard deviation of the blocking level)” value is 5.22 ± 0.06 pA.
The matching figures for `OC[C@@H](O)[C@H](O)[C@@H](O)[C@H](O)CO` [iditol]: 29.3 ± 0.2% and 6.64 ± 0.03 pA.
With `OC[C@@H](O)[C@@H](O)[C@H](O)[C@H](O)CO` [mannitol], in experiment [2] (+100 mV), the “ratio (mean current percentage blockage)” value is 29.2 ± 0.3% and the “std (standard deviation of the blocking level)” value is on record as 3.09 ± 0.17 pA.
The matching figures for `OC[C@@H](O)[C@H](O)[C@H](O)[C@H](O)CO` [talitol]: 27.3 ± 0.2% and 6.33 ± 0.06 pA.
For `OC[C@@H](O)[C@H](O)CO` [threitol] the same measures were 20.3 ± 0.2% and 5.84 ± 0.18 pA.
On to `O=c1[nH]cc([C@@H]2O[C@H](COP(=O)(O)O)[C@@H](O)[C@H]2O)c(=O)[nH]1` [Ψ, Pseudouridine-5′-monophosphate], for which, in experiment [3] (NMP 300 μM in cis, N=3), the “% Ib (percentage blockage)” value is 10.2 ± 0.2%, the “S.D. (noise amplitude of blockage level)” value amounted to 2.40 ± 0.05 pA, the “τoff (mean dwell time)” value was found to be 36.9 ± 3.4 ms and the “τon (mean inter-event interval)” value is 2047.7 ± 283.8 ms. Besides, in experiment [3] (sole NMP 300 μM in cis, three independent measurements), the “Calibration coefficient δ (NMP binding events per unit concentration per min)” value came out at 0.099 ± 0.014 µM⁻¹ min⁻¹.
